pIC50: −log10 of the molar value. Values after ≈ are worked out from the molar mass of the structure shown. Read-outs that look alike come from different tables or passages of the source.
How the values were obtained:
[1] = tested on: Plasmodium falciparum D6 strain; experiment: in vitro anti-malarial activity, [3H]-ethanolamine incorporation method; format: cell-based
Description: Cultures were maintained at 37° C. in a gas mixture of 5% oxygen, 5% CO2, and 90% nitrogen.
[^3H]-ethanolamine was obtained from American Radiolabeled Chemicals, Inc., St. Louis, Mo. Experiments were conducted in 96 well plates in a total volume of 200 μl at a final red blood cell concentration of 2% (v/v). An initial parasitemia of 0.2 to 0.5% was attained by addition of normal uninfected red cells. Radiolabeled ethanolamine was added after 48 hours of incubation and the experiment was terminated after 72 hours by collecting the cells onto glass fiber filters with an automated multiwell harvester.
Stock solutions of the various Formula X1 compounds were dissolved in DMSO at a concentration of 1 mM and diluted in complete medium (including 10% human serum) to provide 10X stock concentrations in the range of 1 to 10,000 nM.

[2] = tested on: intracellular amastigotes of Leishmania mexicana M379; experiment: intracellular amastigote assay in infected murine macrophages; format: cell-based
Description: Bone-marrow-derived macrophages (BALB/c) were cultured with L-cell-conditioned medium for 5-7 days at 35° C. After this period of incubation, mature macrophages were transferred to Labtek 4-chamber slides containing DMEM (Dulbecco's Modified Eagle's Medium) and 10% fetal calf serum. 50,000 cells were seeded in each chamber and allowed to attach overnight at 37° C. in a humidified incubator flushed with 5% CO2. On the next day the macrophages were infected at an MOI (Multiplicity of Infection) of 10:1 with stationary promastigotes of L. mexicana. After twenty-four hours, the medium was removed and fresh medium was added containing various drug concentrations (0-5 μM). Following incubation for an additional forty-eight hours, one set of slides were fixed in methanol, dried, and stained with Giemsa stain. Fresh medium and drug were added to a parallel set of chamber slides and incubated for another 48 hours before staining. […] Microscopic inspection permitted determination of % of infected macrophages and the number of amastigotes per 100 macrophages. The IC50 value is that concentration of drug that reduces the amastigote number by 50% relative to drug-free controls. Results also were obtained in parallel fashion with macrophages.
Intracellular amastigote studies. […] Because the amastigote stage is the only relevant clinical form of the parasites, we examined the activity of the nitrogenated xanthones against the heme-auxotrophic, intracellular amastigote form of L. mexicana. Stationary promastigotes of L. mexicana M379 rapidly invaded murine peritoneal macrophages obtained from BALB/c mice and incubated at 35° C. producing heavily burdened cells with 10 to 50 amastigotes per macrophage within 24 hours. An experiment was performed to investigate the ability of selected xanthones to reduce the number of intracellular amastigotes using this model. The IC50 value is that concentration of drug required to reduce the intracellular parasite burden by 50% relative to a drug-free control chamber. We tested the xanthone series against amastigote-infected murine peritoneal macrophages. Macrophages were seeded into Labtek chamber slides (25,000 per well/8 chamber slide) and allowed to incubate overnight in Dulbecco's Modified Eagle Medium (DMEM) supplemental with 10% fetal calf serum. On the next day the cells were infected with L. mexicana promastigotes at an MOI of 5:1 and then incubated for 24 hours at 35° C. After incubation, the monolayers were washed with buffer and medium containing varying concentrations of each xanthone (0 to 10 μM) was added to each chamber. After 48 hours of incubation (i.e., Day 3 of the experiment) one set of slides was removed, fixed with methanol, and stained with Giemsa. For another set of slides, we replenished the culture medium, added fresh drug to each well as appropriate, and then incubated the chambers for another 48 hours before staining with Giemsa. IC50 values were then averaged for 3 separate experiments and the results are presented in Table 4 and graphically in FIG. 7. […] The IC50 values recorded for C5 and C6 exposure for 96 hours of treatment were 6 nM and 2 nM.

[3] = in vitro heme aggregation (polymerization) assay; format: biochemical; conditions: for IC50: Table 3, 25 μM heme, pH 5.2, 37° C., 2 hours, average of at least two determinations, read-out: IC50, μM in vitro heme polymerization; for inhibitory activity in heme polymerization assay: result in words; for pIC50: text b143, read-out: IC50, inhibition of heme polymerization
Description: Heme polymerization was carried out in 0.02 M phosphate buffer, pH 5.2 at 37° C. in the absence of protenis. A 10 mM stock solution of hemin chloride in 0.1 M NaOH wa prepared freshly and incuated at 37° C. for at least 1 hour to effect complete dissolution. Xanthones were dissolved in dimethylformamide at 10 mM and diluted into 10 ml of pre-warmed phosphate solution to a final concentraion of 25 μm. […] 25 μl of dimethylformaide wa added to the control smample. After 7, 30, 60, 120 and 190 minutes of incugation at 37° C., a 1 ml aliquot was withdraqwn, tranferred into an Eppendorf tube, and centrifugted at 14,000 g for 2 minutes at room temperature to pellet the precipitate. The soluble fraction was then transferred to a semi-microcuvette (polymethyacrylate, VER), and its absoprtion was measured at 360 nm against a blank of the test compound in buffer.
The reactions were allowed to proceed for 2 hours in a 37° C. waterbath. After incubation, the polymer was pelleted as described above and the absorption (360 nm) of each soluble fraction was measured against a blank containing the drug alone in buffer. The IC50 values were determined by nonlinear regression analysis of the dose-response curves of percent inhibition of heme polymerization vs. drug concentration.

Candida albicans = experiment: anti-Candida activity, MIC by visual inspection; format: cell-based; conditions: conversion of the MIC, read-out: IC50 corresponding to the MIC against Candida albicans
Description: The minimum inhibitory concentration (MIC) of formula X1 compounds against a clinical isolate of Candida albicans was determined using the following method. […] The determination of this concentration is made by visual inspection; there is no visible growth in a tube containing the MIC of the formula X1 compound whereas visible growth is present in tubes containing sub-MIC concentrations of the compound.
Candida albicans was grown to midlog-phase in Luria-Bertani broth (10 grams Bacto-tryptone, 5 grams Bacto-yeast extract and 10 grams NaCl per liter) and then inoculated into sterile test tubes containing LB broth to an initial density of 10^3/ml. The formula X1 compound to be tested is dissolved in dimethylsulfoxide (DMSO) at a concentration of 1 mM and added to each tube at serial dilutions (1 μM, 10 μM, 25 μM, 50 μM, 100 μM and 0 μM). The tubes are incubated at 35° C. for 15-18 hours and then visually inspected.

P. falciparum W2 strain = experiment: antimalarial activity against multidrug resistant W2 strain; format: cell-based, Plasmodium falciparum
Description: A decision was made to retain the oxygen atom (a conjugatively electron-donating species) as a bridge for an R-group containing the protonatable nitrogen. […] For comparative purposes, the straight-chain di-substituted series from C2 to C8 (i.e., excepting C7), each with a terminal diethylamino group was prepared. Shown in Table 4 is the remarkable relationship between chain length and antimalarial activity within the series . . . and the extraordinary potency of the C5 (3,6-bis-ω-diethylaminoamyloxyxanthone) and C6 (3,6-bis-ω-diethylaminohexyloxyxanthone) congeners.

[4] = Plasmodium falciparum, D6, Table 4, average of 2 experiments in triplicate, 72 hour assay, read-out: IC50 μM* P. falciparum D6
[5] = Leishmania mexicana, Macrophage, 48 h, read-out: IC50 μM** L. mexicana
[6] = Plasmodium falciparum, D6, Table 3, read-out: IC50 μM, P. falciparum clone D6
[7] = Table 4, average of 2 experiments in triplicate, 72 hour assay, read-out: IC50 μM* P. falciparum D6
[8] = Plasmodium falciparum, D6, read-out: IC50 μM, P. falciparum clone D6
[9] = P. falciparum D6, read-out: IC50, anti-malarial activity
[10] = 96 hours of treatment, peritoneal macrophages, read-out: IC50, L. mexicana amastigotes
[11] = Table 4, 48 hours of drug exposure, reduction of amastigote burden by 50%, read-out: IC50 μM** L. mexicana

Q: With `CCN(CC)CCCCOc1ccc2c(=O)c3ccc(OCCCCN(CC)CC)cc3oc2c1` [36-DEAB-X, 3,6-bis-δ-(N,N-diethylamino)butoxy-xanthone] as the molecule, how does the IC50 [1, 4] read?
A: 0.65 µM

Q: And the IC50 [2, 5]?
A: 0.2 µM

Q: Which IC50 [1, 6] does the source give for `CC(=O)Oc1cc2c(=O)c3ccc(OC(C)=O)c(OC(C)=O)c3oc2c(OC(C)=O)c1OC(C)=O` [2,3,4,5,6-pentaacetoxyxanthone] here?
A: 0.075 µM

Q: And the IC50 [3]?
A: > 1000 µM

Q: And the “inhibitory activity in heme polymerization assay” value [3]?
A: inactive

Q: Which results are given for `O=c1c2cccc(O)c2oc2c(O)cccc12` [4,5-dihydroxyxanthone]?
A: IC50 [1, 6]: 16 µM; IC50 [3]: 14 µM

Q: With `O=c1c2cc(O)c(O)c(O)c2oc2c(O)c(O)c(O)cc12` [2,3,4,5,6,7-hexahydroxyxanthone] as the molecule, how does the IC50 (Candida albicans) read?
A: ~10 µg/mL (≈ 34.2 µM)

Q: And the IC50 [1, 6]?
A: 0.1 µM

Q: And the IC50 [3]?
A: 1.4 µM

Q: For `CCN(CC)CCCCCCCCOc1ccc2c(=O)c3ccc(OCCCCCCCCN(CC)CC)cc3oc2c1` [36-DEAOctyloxy-X, 3,6-bis-(N,N-diethylamino)octyloxy-xanthone], which IC50 [1, 7] is on record?
A: 0.43 µM

Q: What does the source list for `O=c1c2ccc(O)c(O)c2oc2c(O)c(O)c(O)cc12` [2,3,4,5,6-pentahydroxyxanthone]?
A: IC50 (Candida albicans): ~10 µg/mL (≈ 36.2 µM); IC50 [1, 6]: 0.4 µM; IC50 [3]: 1.2 µM; pIC50 [3]: 5.92; IC50 ([2]; Leishmania mexicana, Macrophage, read-out: IC50, anti-leishmanial activity): ~1 µg/mL; pIC50 ([2]; Leishmania mexicana, Macrophage, intracellular amastigote method, read-out: IC50, anti-leishmanial activity): ~5.30

Q: For `CCN(CC)CCOc1ccc2c(=O)c3ccc(OCCN(CC)CC)cc3oc2c1` [36-DEAE-X, 3,6-bis-β-(N,N-diethylamino)ethoxy-xanthone], which IC50 [1, 4] is on record?
A: 2.2 µM

Q: What about the IC50 [2, 5] of the same molecule?
A: ~1.25 µM

Q: What does the source list for `O=c1c2ccccc2oc2ccc(O)cc12` [2-hydroxyxanthone]?
A: IC50 [1, 8]: 50 µM; IC50 [3]: > 1000 µM

Q: With `CCN(CC)CCOc1cccc2c(=O)c3cccc(OCCN(CC)CC)c3oc12` [45-DEAE-X, 4,5-bis-β-(N,N-diethylamino)ethoxy-xanthone] as the molecule, how does the IC50 [1, 4] read?
A: 2.8 µM

Q: What does the source list for `COc1cc2c(=O)c3ccc(OC)c(OC)c3oc2c(OC)c1OC` [2,3,4,5,6-pentamethoxyxanthone]?
A: IC50 [1, 6]: > 100 µM; IC50 [3]: > 1000 µM; inhibitory activity in heme polymerization assay [3]: inactive

Q: What does the source list for `O=c1c2ccccc2oc2cc(O)cc(O)c12` [1,3-dihydroxyxanthone]?
A: IC50 [1, 6]: 75 µM; IC50 [3]: > 1000 µM

Q: Which results are given for `CCN(CC)CCCCCOc1ccc2c(=O)c3ccc(OCCCCCN(CC)CC)cc3oc2c1` [36-DEAAmyl-X, 3,6-bis-ε-(N,N-diethylamino)-amyloxy-xanthone]?
A: pIC50 [1, 9]: ~7.00; IC50 [1, 7]: 0.1 µM; degree of potency against W2 compared with D6 (P. falciparum W2 strain): the same; pIC50 [2, 10]: 8.22; IC50 [2, 11]: 0.06 µM

Q: With `CCN(CC)c1ccc2c(=O)c3ccc(N(CC)CC)cc3oc2c1` [36-DEAX, 3,6-bis-N,N-diethylamino-xanthone] as the molecule, how does the IC50 [1, 4] read?
A: 20 µM

Q: And the pIC50 ([1]; Plasmodium falciparum, P. falciparum D6, read-out: IC50, anti-malarial activity)?
A: ~4.70

Q: For `CCN(CC)CCCCCOc1ccc2c(=O)c3ccccc3oc2c1` [3-(N,N-diethylamino)amyloxy-xanthone], which IC50 [1, 4] is on record?
A: 2.5 µM

Q: With `CCN(CC)CCCCCCOc1ccc2c(=O)c3ccc(OCCCCCCN(CC)CC)cc3oc2c1` [36-DEAHexyl-X, 3,6-bis-(N,N-diethylamino)-hexyloxy-xanthone] as the molecule, how does the pIC50 [1, 9] read?
A: ~7.00

Q: What about the IC50 [1, 7] of the same molecule?
A: 0.075 µM

Q: What about the “degree of potency against W2 compared with D6” value (P. falciparum W2 strain) of the same molecule?
A: the same

Q: What about the pIC50 [2, 10] of the same molecule?
A: 8.70

Q: And the IC50 [2, 11]?
A: 0.02 µM

Q: Which IC50 ([1]; Plasmodium falciparum, D6, Table 4, cells printed in nM, 72 hour assay, read-out: IC50 μM* P. falciparum D6) does the source give for `CCN(CC)CCCCCOc1cccc2c(=O)c3cccc(OCCCCCN(CC)CC)c3oc12` here?
A: 0.575 µM

Q: With `CCN(CC)CCCOc1ccc2c(=O)c3ccc(OCCCN(CC)CC)cc3oc2c1` [36-DEAP-X, 3,6-bis-γ-(N,N-diethylamino)propoxy-xanthone] as the molecule, how does the IC50 [1, 4] read?
A: 1.5 µM

Q: And the IC50 [2, 5]?
A: 0.5 µM

Q: With `CCN(CC)CCCC(C)Nc1ccnc2cc(Cl)ccc12` (stereo not drawn) [Chloroquine, reference compound] as the molecule, how does the pIC50 ([1]; Plasmodium falciparum, D6, read-out: IC50, anti-malarial activity) read?
A: ~7.40

Q: Which IC50 [1, 6] does the source give for `O=c1c2ccc(O)c(O)c2oc2c(O)c(O)ccc12` [3,4,5,6-tetrahydroxyxanthone] here?
A: 5 µM

Q: And the IC50 [3]?
A: 2.5 µM

Q: Which IC50 ([1]; Plasmodium falciparum, D6, read-out: IC50, μM vs. Plasmodium) does the source give for `O=c1c2ccccc2oc2ccccc12` [Xanthone] here?
A: > 10 µM

Q: What about the “inhibitory activity in heme polymerization assay” value [3] of the same molecule?
A: did not exhibit any inhibitory activity

Q: Which results are given for `O=c1c2ccccc2oc2cc(O)ccc12` [3-hydroxyxanthone]?
A: IC50 [1, 8]: > 100 µM; IC50 [3]: > 1000 µM

Q: What does the source list for `O=c1c2cc(O)c(O)c(O)c2oc2cc(O)cc(O)c12` [1,3,5,6,7-pentahydroxyxanthone]?
A: IC50 [1, 6]: 1 µM; IC50 [3]: 9 µM

Q: With `O=c1c2ccc(O)cc2oc2cc(O)ccc12` [3,6-dihydroxyxanthone] as the molecule, how does the IC50 [1, 8] read?
A: > 100 µM

Q: And the IC50 [3]?
A: > 500 µM

Q: With `O=c1c2ccccc2oc2c(O)c(O)c(O)cc12` [2,3,4-trihydroxyxanthone] as the molecule, how does the IC50 [1, 6] read?
A: 40 µM

Q: And the IC50 [3]?
A: 17 µM

Q: And the pIC50 [3]?
A: 4.78

Source: patent US6613797B2, “Xanthone analogs for treating infectious diseases and complexation of heme and porphyrins” (Interlab, Inc., priority 1999, dated 2003)
